Among the data in BindingDB's records for doi:10.1021/acs.jmedchem.1c00256 (University of Strasbourg, 2021) are Ki values, retold here.

Experiment [1] has as its target Prolactin-releasing peptide receptor PRLHR (Homo sapiens) (UniProt P49683). The experiment can be described thus: Displacement of [3H]-PrRP-20 from human PrRP receptor expressed in CHO cells by TopCount scintillation counting method.
The target in another experiment is KiSS-1 receptor (Homo sapiens, UniProt Q969F8). The experiment can be described thus: Displacement of [125I]-Kp-10 from human Kiss1 receptor by TopCount scintillation counting method. For orientation: Displacement assays read how much labelled ligand stays bound in the presence of the test substance.
KiSS-1 receptor, sequence (Q969F8 whole entry): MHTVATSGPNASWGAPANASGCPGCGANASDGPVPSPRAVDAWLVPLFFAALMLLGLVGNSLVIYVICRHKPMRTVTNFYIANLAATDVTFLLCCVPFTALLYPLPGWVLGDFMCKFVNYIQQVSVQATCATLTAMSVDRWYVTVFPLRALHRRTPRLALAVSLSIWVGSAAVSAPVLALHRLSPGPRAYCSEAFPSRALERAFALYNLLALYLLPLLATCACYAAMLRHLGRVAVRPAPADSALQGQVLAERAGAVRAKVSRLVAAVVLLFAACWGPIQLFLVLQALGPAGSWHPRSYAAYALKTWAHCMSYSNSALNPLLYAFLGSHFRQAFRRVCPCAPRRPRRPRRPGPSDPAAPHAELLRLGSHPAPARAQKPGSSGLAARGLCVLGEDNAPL

pKi: −log10 of the molar value.

What is called pKi is the negative decadic logarithm of the Ki, by convention in mol/L.

Prolactin-releasing peptide receptor PRLHR (Homo sapiens), sequence (P49683 whole entry, looked up): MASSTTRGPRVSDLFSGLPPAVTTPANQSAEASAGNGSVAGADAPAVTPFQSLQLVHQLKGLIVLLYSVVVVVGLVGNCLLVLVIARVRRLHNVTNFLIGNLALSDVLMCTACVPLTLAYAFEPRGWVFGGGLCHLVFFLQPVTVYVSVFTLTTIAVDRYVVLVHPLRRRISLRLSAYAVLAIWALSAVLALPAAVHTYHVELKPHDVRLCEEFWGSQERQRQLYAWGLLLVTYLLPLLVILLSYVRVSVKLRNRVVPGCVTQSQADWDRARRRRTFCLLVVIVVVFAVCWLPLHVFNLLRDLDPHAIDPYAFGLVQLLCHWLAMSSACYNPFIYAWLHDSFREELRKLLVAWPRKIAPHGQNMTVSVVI

With H-TPDINPAWYASRGIRPVGRF-NH2, in experiment [1], the pKi is 8.68. `CC(C)C[C@H](NC(=O)CNC(=O)[C@H](Cc1ccccc1)NC(=O)[C@H](CO)NC(=O)[C@H](CC(N)=O)NC(=O)[C@H](Cc1c[nH]c2ccccc12)NC(=O)[C@H](CC(N)=O)NC(=O)[C@@H](N)Cc1ccc(O)cc1)C(=O)N[C@@H](CCCNC(=N)N)C(=O)N[C@@H](Cc1ccccc1)C(N)=O` [Kisspeptin-10]: the pKi on KiSS-1 receptor was 10.21. On to `N=C(N)NCCC[C@@H](NC(=O)C=C(c1ccccc1)c1ccccc1)C(=O)N[C@H](Cc1ccccc1)C(N)=O`, for which, in experiment [1], the pKi was < 4.30.
